Test results taken from patent US5547978A, “Derivatives of pyrrolidin-2-ylcarbonylheterocyclic compounds” (priority 1994, dated 1996).
Like-named read-outs stand apart in the source and are kept apart here. Each block holds one molecule with its values, some of them ahead of it.

Columns and labels:
prolyl endopeptidase = target: T1, prolyl endopeptidase (Sus scrofa, UniProt P23687); experiment: Prolyl endopeptidase-inhibitory activity in vitro (porcine kidney enzyme, Z-Gly-Pro-p-nitroanilide substrate); assay type: biochemical
T1 construct: porcine kidney enzyme which was prepared according to methods of Walter and Yoshimoto et al; from tissue; host or cells: porcine kidney
T1 sequence (P23687 whole entry): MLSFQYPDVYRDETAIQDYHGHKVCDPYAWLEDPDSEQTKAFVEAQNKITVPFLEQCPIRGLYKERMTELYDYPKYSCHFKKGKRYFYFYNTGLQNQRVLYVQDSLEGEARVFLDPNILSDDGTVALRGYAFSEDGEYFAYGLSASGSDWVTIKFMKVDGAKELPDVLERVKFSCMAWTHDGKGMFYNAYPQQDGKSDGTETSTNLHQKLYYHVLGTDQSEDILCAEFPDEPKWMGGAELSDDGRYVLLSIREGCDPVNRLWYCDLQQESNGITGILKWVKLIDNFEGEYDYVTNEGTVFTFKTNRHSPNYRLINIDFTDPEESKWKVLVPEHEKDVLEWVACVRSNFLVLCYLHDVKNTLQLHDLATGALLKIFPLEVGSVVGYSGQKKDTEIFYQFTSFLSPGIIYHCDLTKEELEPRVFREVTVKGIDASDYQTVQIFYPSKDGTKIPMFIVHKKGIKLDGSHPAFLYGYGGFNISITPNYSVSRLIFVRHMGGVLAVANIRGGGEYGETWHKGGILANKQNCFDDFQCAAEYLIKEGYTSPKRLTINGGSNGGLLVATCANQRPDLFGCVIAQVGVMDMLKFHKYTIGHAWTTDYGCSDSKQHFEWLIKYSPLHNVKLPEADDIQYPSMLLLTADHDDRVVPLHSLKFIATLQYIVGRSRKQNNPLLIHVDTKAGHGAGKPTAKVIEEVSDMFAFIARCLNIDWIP
Method: A test compound (2 mg) was dissolved in DMSO (2 ml) and diluted to appropriate concentrations with DMSO. Z-Gly-Pro-p-nitroanilide (8 mg), a substrate was dissolved in dioxane (5 ml), water (27 ml) and 0.2 M phosphate buffer (pH 7.8, 40 ml). The substrate solution ([…]) was mixed with an inhibitor solution (3 ml) and followed by addition of above mentioned porcine kidney enzyme solution ([…]). Immediately after the mixing the UV absorbance at 405 nm was detected. The mixture was incubated at 37° C. for 20 min. and the UV absorbance was checked. A standard curve of absorbance (OD) vs. p-nitroaniline concentration was used to relate the absorbance to amount of substrate hydrolyzed. […] The inhibiting activity was obtained following the equation below. The IC50 value was estimated from the inhibitor concentration vs. inhibitory activity curve.
The percent inhibitory activity (%)=(ΔODc -ΔODs)/ΔODc ×100
ΔODs : ΔOD for test sample

[1] = tested on: brain prolyl endopeptidase; experiment: Ex vivo prolyl endopeptidase inhibition in brain after oral administration; conditions: rat, p.o.; for PEP Actively in brain (% of control): 10 mg/kg
Method: Ex vivo enzyme inhibition studies were performed to assess the degree of CNS availability and prolyl endpeptidase inhibition after oral administration. Compounds were dissolved in a minimal mount of ethanol (about 10% total volume) and made up to the appropriate volume with 1% polyoxyether sorbitan monooleate (Tween 80). Rats were dosed p.o. and at the appropriate times killed. The brains were removed, homogenised in the ice-cooled assay buffer, and centrifugated.

IC50 (prolyl endopeptidase; porcine kidney enzyme, pH 7.8, 37° C., 20 min, read-out: IC50 (converted)): 2.14 nM
Structure (SMILES): O=C(c1nc2ccccc2s1)[C@@H]1CCCN1C(=O)[C@@H]1CCCN1C(=O)CCCc1ccccc1 [Example 1, 2-[1-{1-(4-Phenylbutanoyl)pyrrolidin-2(S)-ylcarbonyl}pyrrolidin-2(S)-ylcarbonyl]benzothiazole]
PEP Actively in brain (% of control) ([1]; 0.25 hr): 42 % of control | PEP Actively in brain (% of control) ([1]; 0.5 hr): 21 % of control | PEP Actively in brain (% of control) ([1]; 1 hr): 32 % of control | PEP Actively in brain (% of control) ([1]; 2 hr): 47 % of control | PEP Actively in brain (% of control) ([1]; 4 hr): 69 % of control | PEP Actively in brain (% of control) ([1]; 6 hr): 98 % of control | brain prolyl endopeptidase inhibition (potency compared with SUAM-1221) ([1]; ex vivo, in words): more potent than SUAM-1221 | duration of action on brain prolyl endopeptidase (compared with SUAM-1221) ([1]; ex vivo, in words): longer duration of action

Structure (SMILES): O=C(c1nc2ncccc2o1)[C@@H]1CCCN1C(=O)[C@@H]1CCCN1C(=O)CCCc1ccccc1 [Example 37, 2-[1 -{1-(4-Phenylbutanoyl)pyrrolidin-2(S)-ylcarbonyl}pyrrolidin-2(S)-ylcarbonyl]oxazolo[4,5-b]pyridine]
IC50 (prolyl endopeptidase): 4.78 nM

Structure (SMILES): O=C(c1nc2ncccc2[nH]1)[C@@H]1CCCN1C(=O)[C@@H]1CCCN1C(=O)CCCc1ccccc1 [Example 38, 2-[1-{1-(4-Phenylbutanoyl)pyrrolidin-2(S)-ylcarbonyl}pyrrolidin-2(S)-ylcarbonyl]imidazo[4,5-b]pyridine]
IC50 (prolyl endopeptidase): 6.09 nM

Structure (SMILES): O=C(c1nc2ccccc2[nH]1)[C@@H]1CCCN1C(=O)[C@@H]1CCCN1C(=O)OCc1ccccc1 [Example 39]
IC50 (prolyl endopeptidase): 7.61 nM

Structure (SMILES): COc1nccnc1C(=O)[C@@H]1CCCN1C(=O)[C@@H]1CCCN1C(=O)CCCc1ccccc1 [Example 40, 2-Methoxy-3-[1-{1-(4-phenylbutanoyl)pyrrolidine-2(S)-ylcarbonyl}pyrrolidin-2(S)-ylcarbonyl]pyrazine]
IC50 (prolyl endopeptidase): 33.3 nM

Structure (SMILES): O=C(C1=NCCS1)[C@@H]1CCCN1C(=O)[C@@H]1CCCN1C(=O)CCCc1ccccc1 [Example 41, 2-[1-{1-(4-Phenylbutanoyl)pyrrolidin-2(S)-ylcarbonyl}pyrrolidin-2(S)-ylcarbonyl]thiazoline]
IC50 (prolyl endopeptidase): 3.98 nM
